The assay relates to R. pulicis. Format: cell-based, Rickettsia pulicis.

In the case of `CC[C@H]1OC(=O)[C@H](C)[C@@H](O[C@H]2C[C@@](C)(OC)[C@@H](O)[C@H](C)O2)[C@H](C)[C@@H](O[C@@H]2O[C@H](C)C[C@H](N(C)C)[C@H]2O)[C@](C)(O)C[C@@H](C)C(=O)[C@H](C)[C@@H](O)[C@]1(C)O` [Erythromycin], the “resistance/sensitivity of the isolate to the antibiotic” value is listed as “resistant”.
